Measurements reported in the supplement of paper PMC10307832.

How the values were obtained:
Assay in all cases: relative viability (nuclei count vs DMSO), 5 days (fraction); higher = more cells survive
[1] = compound: CN1CCN(CC1)C2=CC(=C(C=C2)NC3=NC(=C(S3)C(=O)C4=C(C=CC=C4Cl)Cl)N)OC [XMD14-99] + C[C@]1(O)C[C@@H](c2nc(-c3ccc4ccc(-c5ccccc5)nc4c3)c3c(N)nccn32)C1 [Linsitinib] (partner 1 µM)
How it was run: (§1)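 Lung cancer cell lines in 1536-well plates were dosed by pin tool the day after seeding, either with one drug alone or with a fixed anchor-drug dose plus five library-drug doses (not always all listed) in √10 steps. After 5 days, cells were fixed and their nuclei stained in one step (final 0.05% Triton X-100, 1% formaldehyde, 1 ug/ml Hoechst), then counted on 4× images. Relative viability is the nuclei count in treated wells divided by that in vehicle wells. Values are medians of duplicate plates.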

[2] = compound: CN1CCN(CC1)C2=CC(=C(C=C2)NC3=NC(=C(S3)C(=O)C4=C(C=CC=C4Cl)Cl)N)OC [XMD14-99] + CS(=O)(=O)CCNCc1ccc(-c2ccc3ncnc(Nc4ccc(OCc5cccc(F)c5)c(Cl)c4)c3c2)o1 [Lapatinib] (partner 2 µM)
How it was run: as §1

[3] = compound: CN1CCN(CC1)C2=CC(=C(C=C2)NC3=NC(=C(S3)C(=O)C4=C(C=CC=C4Cl)Cl)N)OC [XMD14-99] + Cc1cc(Nc2cc(N3CCN(C)CC3)nc(Sc3ccc(NC(=O)C4CC4)cc3)n2)n[nH]1 [Tozasertib] (partner 0.1 µM)
How it was run: as §1

[4] = compound: CN1CCN(CC1)C2=CC(=C(C=C2)NC3=NC(=C(S3)C(=O)C4=C(C=CC=C4Cl)Cl)N)OC [XMD14-99] + O=C(c1cc(Cc2n[nH]c(=O)c3ccccc23)ccc1F)N1CCN(C(=O)C2CC2)CC1 [Olaparib] (partner 8 µM)
How it was run: as §1

[5] = compound: CN1CCN(CC1)C2=CC(=C(C=C2)NC3=NC(=C(S3)C(=O)C4=C(C=CC=C4Cl)Cl)N)OC [XMD14-99] + CC(C)C[C@H](NC(=O)[C@H](Cc1ccccc1)NC(=O)c1cnccn1)B(O)O [Bortezomib] (partner 0.002 µM)
How it was run: as §1

| Cell Line | relative viability ([1]; first compound 0.08 µM) | relative viability ([1]; first compound 0.8 µM) | relative viability ([1]; first compound 2.53 µM) | relative viability ([1]; first compound 8 µM) | relative viability ([2]; first compound 0.08 µM) | relative viability ([2]; first compound 0.8 µM) | relative viability ([2]; first compound 2.53 µM) | relative viability ([2]; first compound 8 µM) | relative viability ([3]; first compound 0.08 µM) | relative viability ([3]; first compound 0.8 µM) | relative viability ([3]; first compound 2.53 µM) | relative viability ([3]; first compound 8 µM) | relative viability ([4]; first compound 0.08 µM) | relative viability ([4]; first compound 0.8 µM) | relative viability ([4]; first compound 2.53 µM) | relative viability ([4]; first compound 8 µM) | relative viability ([5]; first compound 0.08 µM) | relative viability ([5]; first compound 0.8 µM) | relative viability ([5]; first compound 2.53 µM) | relative viability ([5]; first compound 8 µM) |
| --- | --- | --- | --- | --- | --- | --- | --- | --- | --- | --- | --- | --- | --- | --- | --- | --- | --- | --- | --- | --- |
| NCI-H1944 | 1.23 | 1.19 | 1.12 | 1.04 | 0.748 | 0.828 | 0.843 | 0.613 | 0.226 | 0.256 | 0.255 | 0.235 | 0.448 | 0.404 | 0.397 | 0.283 | – | – | – | – |
| NCI-H1793 | 0.9 | 0.979 | 0.703 | 0.738 | 0.646 | 0.729 | 0.647 | 0.633 | 0.329 | 0.377 | 0.34 | 0.28 | 0.818 | 0.915 | 0.782 | 0.622 | – | – | – | – |
| A549 | 0.636 | 0.599 | 0.629 | 0.505 | 0.857 | 0.923 | 0.983 | 0.685 | – | – | – | – | 0.471 | 0.377 | 0.311 | 0.27 | – | – | – | – |
| NCI-H358 | 0.703 | 0.673 | 0.557 | 0.29 | 0.45 | 0.45 | 0.317 | 0.231 | 0.0889 | 0.102 | 0.0882 | 0.0609 | 0.603 | 0.773 | 0.585 | 0.312 | – | – | – | – |
| NCI-H1563 | 1.21 | 1.12 | 1.17 | 1.08 | 0.85 | 1.1 | 0.906 | 0.824 | – | – | – | – | – | – | – | – | 0.885 | 1.07 | 0.85 | 0.686 |
| NCI-H1395 | 1.04 | 1.02 | 0.955 | 0.784 | 0.985 | 0.958 | 1.04 | 0.809 | 0.689 | 0.79 | 0.537 | 0.651 | 0.475 | 0.472 | 0.47 | 0.364 | – | – | – | – |
| SW 900 | – | – | – | – | – | – | – | – | 0.665 | 0.453 | 0.451 | 0.37 | 0.831 | 0.845 | 0.766 | 0.525 | – | – | – | – |
| IA-LM | 0.648 | 0.308 | 0.286 | 0.281 | 0.821 | 0.603 | 0.511 | 0.301 | – | – | – | – | 0.943 | 0.691 | 0.68 | 0.352 | 0.783 | 0.79 | 0.47 | 0.394 |
| NCI-H1703 | 0.843 | 0.888 | 0.752 | 0.57 | 0.9 | 0.976 | 0.972 | 0.793 | – | – | – | – | 0.492 | 0.456 | 0.622 | 0.269 | 0.334 | 0.235 | 0.268 | 0.211 |
| LCLC-103H | 0.909 | 1.13 | 1 | 0.973 | – | – | – | – | 0.494 | 0.487 | 0.465 | 0.44 | 0.764 | 0.779 | 0.752 | 0.657 | 0.991 | 1.08 | 1.07 | 0.995 |
| NCI-H1648 | – | – | – | – | – | – | – | – | 0.362 | 0.292 | 0.316 | 0.253 | 0.95 | 0.433 | 0.654 | 0.316 | – | – | – | – |
